Test results published in ChEMBL document CHEMBL4007458, “1-ethyl-3-(6-methylphenanthridine-8-il) urea modulates TLR3/9 activation and induces selective pro-inflammatory cytokine expression in vitro” (Bioorg Med Chem Lett, 2017).
The source made the active and inactive calls. No cut-off for these calls is given here.

Experiments:
PBMC [1] = test: Immunomodulatory activity in human PBMC assessed as induction of IL-6 secretion at 16 uM after 24 hrs by ELISA; format: functional, cell-based
HEK293 = test: Cytotoxicity against HEK293 cells assessed as reduction in cell viability up to 10 uM after 24 hrs by MTT assay; format: cell-based; details: human, hek293, 24 h
[2] = Solubility of the compound in water; format: physicochemical; details: buffer
[3] = molecular target: Toll-like receptor 3 (Homo sapiens) (UniProt O15455); test: Inhibition of TLR3 in human PBMC assessed as reduction in poly(I:C)-stimulated IL-6 expression at 1 to 10 uM by ELISA relative to control
Toll-like receptor 3 (Homo sapiens), sequence (O15455 whole entry): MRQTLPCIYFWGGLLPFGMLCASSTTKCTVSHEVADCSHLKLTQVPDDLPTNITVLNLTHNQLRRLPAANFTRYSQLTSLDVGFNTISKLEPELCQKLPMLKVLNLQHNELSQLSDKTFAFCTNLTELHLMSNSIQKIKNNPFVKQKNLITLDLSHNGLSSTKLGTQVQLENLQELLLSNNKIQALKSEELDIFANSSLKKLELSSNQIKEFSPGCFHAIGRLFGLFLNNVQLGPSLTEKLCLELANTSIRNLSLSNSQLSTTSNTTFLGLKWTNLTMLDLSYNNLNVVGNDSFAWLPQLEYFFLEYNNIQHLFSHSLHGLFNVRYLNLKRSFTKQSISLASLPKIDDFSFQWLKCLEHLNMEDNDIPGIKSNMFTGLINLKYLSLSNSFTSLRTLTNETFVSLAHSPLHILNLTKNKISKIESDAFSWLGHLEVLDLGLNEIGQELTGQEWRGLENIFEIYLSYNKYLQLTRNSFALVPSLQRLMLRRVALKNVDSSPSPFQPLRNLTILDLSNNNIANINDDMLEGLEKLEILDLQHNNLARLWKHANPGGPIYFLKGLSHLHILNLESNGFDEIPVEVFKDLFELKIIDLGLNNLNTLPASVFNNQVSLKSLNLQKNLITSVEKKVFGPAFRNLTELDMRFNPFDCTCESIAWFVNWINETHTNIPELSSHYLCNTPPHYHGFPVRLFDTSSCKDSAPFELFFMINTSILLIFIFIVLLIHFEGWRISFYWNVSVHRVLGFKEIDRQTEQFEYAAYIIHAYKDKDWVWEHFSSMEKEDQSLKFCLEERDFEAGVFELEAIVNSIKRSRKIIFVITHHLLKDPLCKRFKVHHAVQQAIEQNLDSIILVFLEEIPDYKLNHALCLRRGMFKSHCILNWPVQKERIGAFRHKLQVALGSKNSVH

[4] = molecular target: T1, Toll-like receptor 7 (Homo sapiens) (UniProt Q9NYK1); test: Activation of human TLR7 expressed in HEK293 cells assessed as induction of NF-kB at 0.1 to 5 uM after 18 hrs by luciferase reporter gene assay; format: cell-based
T1 sequence (whole entry): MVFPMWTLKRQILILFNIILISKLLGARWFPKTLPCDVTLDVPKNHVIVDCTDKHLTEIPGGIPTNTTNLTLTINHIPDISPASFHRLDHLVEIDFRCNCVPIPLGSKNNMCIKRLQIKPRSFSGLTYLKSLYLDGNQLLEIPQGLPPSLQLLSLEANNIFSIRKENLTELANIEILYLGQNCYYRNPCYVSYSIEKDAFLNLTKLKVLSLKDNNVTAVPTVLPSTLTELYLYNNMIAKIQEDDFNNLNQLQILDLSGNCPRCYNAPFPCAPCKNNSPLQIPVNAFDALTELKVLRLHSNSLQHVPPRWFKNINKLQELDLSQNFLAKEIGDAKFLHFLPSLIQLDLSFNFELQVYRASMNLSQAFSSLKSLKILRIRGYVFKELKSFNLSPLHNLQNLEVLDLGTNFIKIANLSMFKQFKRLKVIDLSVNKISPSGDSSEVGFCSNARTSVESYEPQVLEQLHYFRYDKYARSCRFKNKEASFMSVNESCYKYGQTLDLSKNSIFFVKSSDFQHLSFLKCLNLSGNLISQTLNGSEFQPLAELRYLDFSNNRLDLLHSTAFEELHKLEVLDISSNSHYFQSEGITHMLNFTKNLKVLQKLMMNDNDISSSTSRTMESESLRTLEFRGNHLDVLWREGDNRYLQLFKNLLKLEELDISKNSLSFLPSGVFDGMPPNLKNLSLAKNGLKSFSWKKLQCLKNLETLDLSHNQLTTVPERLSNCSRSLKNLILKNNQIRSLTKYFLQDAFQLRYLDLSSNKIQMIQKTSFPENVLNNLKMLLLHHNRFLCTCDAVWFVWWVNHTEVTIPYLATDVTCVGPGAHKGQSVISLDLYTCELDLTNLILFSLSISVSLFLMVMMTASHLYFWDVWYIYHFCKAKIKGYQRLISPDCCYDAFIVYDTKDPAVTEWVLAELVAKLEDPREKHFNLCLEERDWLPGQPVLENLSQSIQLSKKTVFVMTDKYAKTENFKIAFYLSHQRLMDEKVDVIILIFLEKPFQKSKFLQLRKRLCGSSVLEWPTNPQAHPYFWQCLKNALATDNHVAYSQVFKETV

[5] = molecular target: T2, Toll-like receptor 8 (Homo sapiens) (UniProt Q9NR97); test: Activation of human TLR8 expressed in HEK293 cells assessed as induction of NF-kB at 0.1 to 5 uM after 18 hrs by luciferase reporter gene assay; format: cell-based
T2 sequence (whole entry): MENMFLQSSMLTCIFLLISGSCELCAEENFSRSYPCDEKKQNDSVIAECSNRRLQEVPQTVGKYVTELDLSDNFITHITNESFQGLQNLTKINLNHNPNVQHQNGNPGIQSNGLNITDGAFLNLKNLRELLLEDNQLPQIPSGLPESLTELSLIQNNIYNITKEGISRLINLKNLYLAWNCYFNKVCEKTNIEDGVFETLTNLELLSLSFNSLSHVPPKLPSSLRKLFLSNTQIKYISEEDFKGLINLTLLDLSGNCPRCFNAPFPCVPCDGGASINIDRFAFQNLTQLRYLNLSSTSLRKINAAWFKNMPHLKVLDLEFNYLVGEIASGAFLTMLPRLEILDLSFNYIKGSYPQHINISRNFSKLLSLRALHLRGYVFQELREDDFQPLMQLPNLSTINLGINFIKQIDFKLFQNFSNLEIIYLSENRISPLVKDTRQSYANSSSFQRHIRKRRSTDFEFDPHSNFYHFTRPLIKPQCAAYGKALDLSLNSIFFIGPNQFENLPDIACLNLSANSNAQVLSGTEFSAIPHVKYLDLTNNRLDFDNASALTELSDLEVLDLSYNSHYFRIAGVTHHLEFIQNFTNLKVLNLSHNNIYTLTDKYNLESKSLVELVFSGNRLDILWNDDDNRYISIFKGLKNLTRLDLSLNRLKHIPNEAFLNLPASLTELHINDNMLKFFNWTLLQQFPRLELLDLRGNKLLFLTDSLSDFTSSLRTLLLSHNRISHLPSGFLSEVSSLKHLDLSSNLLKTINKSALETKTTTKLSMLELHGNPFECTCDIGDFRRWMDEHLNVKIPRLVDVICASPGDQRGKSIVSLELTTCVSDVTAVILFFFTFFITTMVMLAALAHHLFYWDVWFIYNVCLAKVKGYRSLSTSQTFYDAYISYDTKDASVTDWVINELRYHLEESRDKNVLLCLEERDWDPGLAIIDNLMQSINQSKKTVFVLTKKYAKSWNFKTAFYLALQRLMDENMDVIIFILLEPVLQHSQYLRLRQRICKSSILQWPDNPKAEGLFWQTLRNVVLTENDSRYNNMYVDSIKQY

[6] = Binding affinity to synthetic ODN2216 assessed as negative ICD band around 240 to 340 nm at 3 x 10^5 10^-6mol/dm3 at pH 7 by CD spectroscopic method
PBMC [7] = test: Immunomodulatory activity in human PBMC assessed as induction of TNFalpha secretion at 10 uM after 24 hrs by ELISA; format: functional, cell-based
[8] = Binding affinity to synthetic ODN2006 assessed as ratio of fluorescence intensity of compound-ODN complex to fluorescence intensity of compound at 0.01 mol/dm3 at pH 7 by fluorescence spectroscopic method
[9] = Binding affinity to synthetic ODN2006 at 0.01 mol/dm3 at pH 7 by fluorescence spectroscopic method
[10] = Binding affinity to synthetic ODN2006 assessed as ICD band around 300 nm at 3 x 10^5 10^-6mol/dm3 at pH 5.7 by CD spectroscopic method
[11] = Binding affinity to synthetic ODN2006 assessed as ratio of fluorescence intensity of compound-ODN complex to fluorescence intensity of compound at 0.01 mol/dm3 at pH 5.7 by fluorescence spectroscopic method
[12] = Binding affinity to synthetic ODN2216 assessed as negative ICD band around 240 to 340 nm at 3 x 10^5 10^-6mol/dm3 at pH 5.7 by CD spectroscopic method
PBMC [13] = test: Immunomodulatory activity in human PBMC assessed as induction of IL-8 secretion after 24 hrs by ELISA; format: functional, cell-based
[14] = Binding affinity to synthetic ODN2006 assessed as ICD band around 301 nm at 3 x 10^5 10^-6mol/dm3 at pH 7 by CD spectroscopic method
[15] = molecular target: Toll-like receptor 3 (Homo sapiens) (UniProt O15455); test: Inhibition of human TLR3 expressed in HEK293 cells assessed as reduction in poly(I:C)-induced NF-kB activation up to 5 uM after 18 hrs by luciferase reporter gene assay; format: cell-based
PBMC [16] = test: Immunomodulatory activity in human PBMC assessed as induction of INFalpha secretion at 10 uM after 24 hrs by ELISA; format: functional, cell-based
PBMC [17] = test: Cytotoxicity against human PBMC assessed as reduction in cell viability up to 10 uM after 24 hrs by MTT assay; format: cell-based
[18] = molecular target: T3, Toll-like receptor 9 (Homo sapiens) (UniProt Q9NR96); test: Inhibition of TLR9 in human PBMC assessed as reduction in ODN2006-stimulated IL-8 expression at 1 to 10 uM by ELISA
T3 sequence (whole entry): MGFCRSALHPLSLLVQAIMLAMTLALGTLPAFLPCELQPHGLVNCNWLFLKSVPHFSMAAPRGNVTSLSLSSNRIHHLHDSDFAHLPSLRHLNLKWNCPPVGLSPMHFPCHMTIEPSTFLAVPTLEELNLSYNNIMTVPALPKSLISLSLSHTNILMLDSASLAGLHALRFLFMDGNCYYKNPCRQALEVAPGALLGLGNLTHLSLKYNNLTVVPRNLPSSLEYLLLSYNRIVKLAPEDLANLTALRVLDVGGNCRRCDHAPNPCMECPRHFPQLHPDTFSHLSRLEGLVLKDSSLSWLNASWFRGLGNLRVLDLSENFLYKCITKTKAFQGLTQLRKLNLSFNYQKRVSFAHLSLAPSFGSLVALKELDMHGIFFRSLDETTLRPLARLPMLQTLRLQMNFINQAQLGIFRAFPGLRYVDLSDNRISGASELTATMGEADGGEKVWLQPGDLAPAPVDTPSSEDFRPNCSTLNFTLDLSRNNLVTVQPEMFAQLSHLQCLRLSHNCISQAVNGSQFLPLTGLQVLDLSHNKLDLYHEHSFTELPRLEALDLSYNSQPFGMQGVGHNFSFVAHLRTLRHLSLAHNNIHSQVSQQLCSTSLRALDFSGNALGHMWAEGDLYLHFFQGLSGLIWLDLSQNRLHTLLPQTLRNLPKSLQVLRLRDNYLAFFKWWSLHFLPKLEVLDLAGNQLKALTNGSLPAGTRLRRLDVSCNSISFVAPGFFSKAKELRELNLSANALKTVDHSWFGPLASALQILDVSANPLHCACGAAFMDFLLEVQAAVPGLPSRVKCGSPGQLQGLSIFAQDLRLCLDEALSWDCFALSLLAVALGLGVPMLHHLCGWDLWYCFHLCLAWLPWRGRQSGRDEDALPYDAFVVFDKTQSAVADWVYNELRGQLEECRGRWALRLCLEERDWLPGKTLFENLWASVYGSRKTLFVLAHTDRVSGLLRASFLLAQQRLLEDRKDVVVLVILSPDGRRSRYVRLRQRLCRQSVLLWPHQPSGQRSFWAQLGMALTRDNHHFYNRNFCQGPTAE

PBMC [19] = test: Immunomodulatory activity in human PBMC assessed as induction of IL-6 secretion at 10 uM after 24 hrs by ELISA; format: functional, cell-based
[20] = Binding affinity to synthetic ODN2216 assessed as ratio of fluorescence intensity of compound-ODN complex to fluorescence intensity of compound at 0.01 mol/dm3 at pH 5.7 by fluorescence spectroscopic method
[21] = molecular target: T3, Toll-like receptor 9 (Homo sapiens); test: Inhibition of TLR9 in human PBMC assessed as reduction in ODN2216-stimulated IFNalpha expression at 1 to 10 uM by ELISA
[22] = molecular target: T3, Toll-like receptor 9 (Homo sapiens); test: Inhibition of human TLR9 activation expressed in HEK293 cells assessed as reduction in ODN2006-induced NF-kB activation up to 5 uM after 18 hrs by luciferase reporter gene assay; format: cell-based
[23] = Binding affinity to synthetic ODN2216 at 0.01 mol/dm3 at pH 5.7 by fluorescence spectroscopic method
[24] = molecular target: T3, Toll-like receptor 9 (Homo sapiens); test: Inhibition of TLR9 in PMA-induc ed human THP1 cells assessed as reduction in ODN2216-induced TNFalpha by ELISA
[25] = molecular target: Toll-like receptor 3 (Homo sapiens) (UniProt O15455); test: Inhibition of TLR3 in human PBMC assessed as reduction in poly(I:C)-stimulated IL-6 expression at 1 uM by ELISA relative to control
PBMC [26] = test: Immunomodulatory activity in human PBMC assessed as induction of IL-1beta secretion at 10 uM after 24 hrs by ELISA; format: functional, cell-based
THP-1 = test: Cytotoxicity against human THP1 cells assessed as reduction in cell viability up to 10 uM after 24 hrs by MTT assay; format: cell-based; details: thp-1, 24 h
[27] = Binding affinity to synthetic ODN2006 at 0.01 mol/dm3 at pH 5.7 by fluorescence spectroscopic method
[28] = molecular target: T2, Toll-like receptor 8 (Homo sapiens); test: Activation of human TLR8 expressed in HEK293 cells assessed as induction of NF-kB after 18 hrs by luciferase reporter gene assay; format: cell-based
[29] = molecular target: T1, Toll-like receptor 7 (Homo sapiens); test: Activation of human TLR7 expressed in HEK293 cell assessed as induction of NF-kB after 18 hrs by luciferase reporter gene assay; format: cell-based
PBMC [30] = test: Immunomodulatory activity in human PBMC assessed as induction of IL-6 secretion at 5 uM after 24 hrs by ELISA; format: functional, cell-based

## CCOCc1nc2c(N)nc3ccccc3c2n1CC(C)(C)O
PBMC [1]
  Activity: Active

## CCNC(=O)Nc1ccc2c(c1)c(C)nc1ccccc12
HEK293
  Activity: Non-Toxic
[2]
  solubility: Insoluble
[3]
  inhibition: Active
[4]
  Activity: inactive
[5]
  Activity: inactive
[6]
  Activity: Active
PBMC [7]
  Activity: Active
[8]
  Ratio: 0.6
[9]
  log Ks: 5.4
[10]
  Activity: inactive
[11]
  Ratio: 0.2
[12]
  Activity: Active
PBMC [13]
  Activity: Dose-dependent effect
[14]
  Activity: Active
[15]
  inhibition: Active
PBMC [16]
  Activity: inactive
PBMC [17]
  Activity: Non-Toxic
[18]
  inhibition: inactive
PBMC [19]
  Activity: Active
[20]
  Ratio: 0.73
[21]
  inhibition: Active
[22]
  inhibition: Active
[23]
  log Ks: 4.04
[24]
  inhibition: Dose-dependent effect
[25]
  inhibition: 50%
PBMC [26]
  Activity: inactive
THP-1
  Activity: Non-Toxic
[27]
  log Ks: 4.5

## CCOCc1nc2c(N)nc3ccccc3c2[nH]1
[28]
  Activity: Active
[29]
  Activity: Active

## CC(C)Cn1cnc2c(N)nc3ccccc3c21
PBMC [30]
  Activity: Active
